Measurements as given in US9809625B2, “Immunomodulators” (BRISTOL-MYERS SQUIBB COMPANY, priority 2015, dated 2017).
Bridge positions count the residues as written; N and C are the ends. Square brackets hold non-standard residues; d marks the D form. Peptide text beside a SMILES is read from it. * marks the point of attachment. ξ: configuration not given here. Hyp = O=C(O)[C@@H]1C[C@@H](O)CN1; ξW = NC(Cc1c[nH]c2ccccc12)C(=O)O; NH(3-picolyl) = c1cncc(CN*)c1; NMeNle = CCCC[C@H](NC)C(=O)O; X3 = CN(CCN*)C(=O)OC(C)(C)C; Morpholide = C1CN(*)CCO1; NMeA = CN[C@@H](C)C(=O)O; Pyrrolidide = C1CCN(*)C1; Dap = NC[C@H](N)C(=O)O; NH(propargyl) = C#CCN*; X10 = c1ccc(OCCN*)cc1; X13 = CS(=O)(=O)CCN*; N(Me)nPr = CCCN(C)*; X11 = OC1CCC(N*)CC1; X9 = OCCN(CCO)CCCN*; NHcBu = C1CC(N*)C1

Molecular target: T1, PD-1-Ig binding to PD-L1-TVMV-His (PD-L1-His) (Homo sapiens, UniProt Q9NZQ7)
T1 construct: hPDL1(19-239)-TVMV-His; TVMV protease cleavage site (C); made in house; host or cells: HEK293T
Assay: PD-1/PD-L1 Homogenous Time-Resolved Fluorescence (HTRF) binding assay
Details: PD-1-Ig (20 nM)/PD-L1-His (10 nM), range classes
Text: Methods for Testing the Ability of Macrocyclic Peptides to Compete for the Binding of PD-1 to PD-L1 Using Homogenous Time-Resolved Fluorescence (HTRF) Binding Assays
The ability of the macrocyclic peptides of the present disclosure to bind to PD-L1 was investigated using a PD-1/PD-L1 Homogenous Time-Resolved Fluorescence (HTRF) binding assay.
Homogenous Time-Resolved Fluorescence (HTRF) Assays of Binding of Soluble PD-1 to Soluble PD-L1. Soluble PD-1 and soluble PD-L1 refers to proteins with carboxyl-end truncations that remove the transmembrane-spanning regions and are fused to heterologous sequences, specifically the Fc portion of the human immunoglobuling G sequence (Ig) or the hexahistidine epitope tag (His). All binding studies were performed in an HTRF assay buffer consisting of dPBS supplemented with 0.1% (w/v) bovine serum albumin and 0.05% (v/v) Tween-20. For the PD-1-Ig/PD-L1-His binding assay, inhibitors were pre-incubated with PD-L1-His (10 nM final) for 15 m in 4 μl of assay buffer, followed by addition of PD-1-Ig (20 nM final) in 1 μl of assay buffer and further incubation for 15 m. PD-L1 fusion proteins from either human, cynomologous macaques, mouse, or other species were used. HTRF detection was achieved using europium crypate-labeled anti-Ig monoclonal antibody (1 nM final) and allophycocyanin (APC) labeled anti-His monoclonal antibody (20 nM final). Antibodies were diluted in HTRF detection buffer and 5 μl was dispensed on top of binding reaction. The reaction was allowed to equilibrate for 30 minutes and signal (665 nm/620 nm ratio) was obtained using an EnVision fluorometer. Additional binding assays were established between PD-1-Ig/PD-L2-His (20 and 5 nM, respectively), CD80-His/PD-L1-Ig (100 and 10 nM, respectively) and CD80-His/CTLA4-Ig (10 and 5 nM, respectively). Binding/competition studies between biotinylated Compound No. 71 and human PD-L1-His were performed as follows. Macrocyclic peptide inhibitors were pre-incubated with PD-L1-His (10 nM final) for 60 minutes in 4 μl of assay buffer followed by addition of biotinylated Compound No. 71 (0.5 nM final) in 1 μl of assay buffer. Binding was allowed to equilibrate for 30 minutes followed by addition of europium crypated labeled Streptavidin (2.5 pM final) and APC-labeled anti-His (20 nM final) in 5 μl of HTRF buffer. The reaction was allowed to equilibrate for 30 m and signal (665 nm/620 nm ratio) was obtained using an EnVision fluorometer.
Recombinant Proteins. Carboxyl-truncated human PD-1 (amino acids 25-167) with a C-terminal human Ig epitope tag [hPD-1 (25-167)-3S-IG] and human PD-L1 (amino acids 18-239) with a C-terminal His epitope tag [hPD-L1(19-239)-tobacco vein mottling virus protease cleavage site (TVMV)-His] were expressed in HEK293T cells and purified sequentially by recombinant Protein A affinity chromatography and size exclusion chromatography. Human PD-L2-His (Sino Biologicals), CD80-His (Sino Biologicals), CTLA4-Ig (RnD Systems) were all obtained through commercial sources.

T1 sequence (Q9NZQ7 with tags, fused parts or gaps): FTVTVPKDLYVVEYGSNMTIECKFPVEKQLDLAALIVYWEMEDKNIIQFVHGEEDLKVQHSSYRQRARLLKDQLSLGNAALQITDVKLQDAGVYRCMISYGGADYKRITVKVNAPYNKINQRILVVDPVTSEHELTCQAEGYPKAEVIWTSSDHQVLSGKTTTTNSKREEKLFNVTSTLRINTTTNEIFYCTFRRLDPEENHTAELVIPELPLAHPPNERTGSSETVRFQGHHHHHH

Compound | IC50
CCCC[C@H]1C(=O)N(C)[C@@H](CCCC)C(=O)N[C@@H](CC(C)C)C(=O)N[C@H](C(=O)NCC(=O)N2CCCC2)CSCC(=O)N[C@@H](Cc2ccc(O)cc2)C(=O)N(C)[C@@H](C)C(=O)N[C@@H](CC(N)=O)C(=O)N2CCC[C@H]2C(=O)N[C@@H](CN)C(=O)N[C@@H](CC(C)C)C(=O)N2C[C@H](O)C[C@H]2C(=O)N[C@@H](Cc2c[nH]c3ccccc23)C(=O)NCC(=O)N[C@@H](Cc2c[nH]c3ccccc23)C(=O)N1C [Example 13085] ({CH2CO}-Y[NMeA]NP[Dap]L[Hyp]WGW[NMeNle][NMeNle]LCG-Pyrrolidide; thioether N-14) | 0.01 to 0.06 µM
CCCC[C@H]1C(=O)N(C)[C@@H](CCCC)C(=O)N[C@@H](CC(C)C)C(=O)N[C@H](C(=O)NCC(=O)NCCN(C)C(=O)OC(C)(C)C)CSCC(=O)N[C@@H](Cc2ccc(O)cc2)C(=O)N(C)[C@@H](C)C(=O)N[C@@H](CC(N)=O)C(=O)N2CCC[C@H]2C(=O)N[C@@H](CN)C(=O)N[C@@H](CC(C)C)C(=O)N2C[C@H](O)C[C@H]2C(=O)N[C@@H](Cc2c[nH]c3ccccc23)C(=O)NCC(=O)NC(Cc2c[nH]c3ccccc23)C(=O)N1C (some centres unmarked) [Example 13113] ({CH2CO}-Y[NMeA]NP[Dap]L[Hyp]WG[ξW][NMeNle][NMeNle]LCG-X3; thioether N-14) | 0.01 to 0.06 µM
CCCC[C@H]1C(=O)N(C)[C@@H](CCCC)C(=O)N[C@@H](CC(C)C)C(=O)N[C@H](C(=O)NCC(=O)NC2CCC(O)CC2)CSCC(=O)N[C@@H](Cc2ccc(O)cc2)C(=O)N(C)[C@@H](C)C(=O)N[C@@H](CC(N)=O)C(=O)N2CCC[C@H]2C(=O)N[C@@H](CN)C(=O)N[C@@H](CC(C)C)C(=O)N2C[C@H](O)C[C@H]2C(=O)N[C@@H](Cc2c[nH]c3ccccc23)C(=O)NCC(=O)NC(Cc2c[nH]c3ccccc23)C(=O)N1C (some centres unmarked) [Example 13106] ({CH2CO}-Y[NMeA]NP[Dap]L[Hyp]WG[ξW][NMeNle][NMeNle]LCG-X11; thioether N-14) | 0.01 to 0.06 µM
C#CCNC(=O)CNC(=O)[C@@H]1CSCC(=O)N[C@@H](Cc2ccc(O)cc2)C(=O)N(C)[C@@H](C)C(=O)N[C@@H](CC(N)=O)C(=O)N2CCC[C@H]2C(=O)N[C@@H](CN)C(=O)N[C@@H](CC(C)C)C(=O)N2C[C@H](O)C[C@H]2C(=O)N[C@@H](Cc2c[nH]c3ccccc23)C(=O)NCC(=O)NC(Cc2c[nH]c3ccccc23)C(=O)N(C)[C@@H](CCCC)C(=O)N(C)[C@@H](CCCC)C(=O)N[C@@H](CC(C)C)C(=O)N1 (some centres unmarked) [Example 13096] ({CH2CO}-Y[NMeA]NP[Dap]L[Hyp]WG[ξW][NMeNle][NMeNle]LCG-{NH(propargyl)}; thioether N-14) | 0.01 to 0.06 µM
CCCC[C@H]1C(=O)N(C)[C@@H](CCCC)C(=O)N[C@@H](CC(C)C)C(=O)N[C@H](C(=O)NCC(=O)N2CCOCC2)CSCC(=O)N[C@@H](Cc2ccc(O)cc2)C(=O)N(C)[C@@H](C)C(=O)N[C@@H](CC(N)=O)C(=O)N2CCC[C@H]2C(=O)N[C@@H](CN)C(=O)N[C@@H](CC(C)C)C(=O)N2C[C@H](O)C[C@H]2C(=O)N[C@@H](Cc2c[nH]c3ccccc23)C(=O)NCC(=O)N[C@@H](Cc2c[nH]c3ccccc23)C(=O)N1C [Example 13087] ({CH2CO}-Y[NMeA]NP[Dap]L[Hyp]WGW[NMeNle][NMeNle]LCG-Morpholide; thioether N-14) | 0.01 to 0.06 µM
CCCC[C@H]1C(=O)N(C)[C@@H](CCCC)C(=O)N[C@@H](CC(C)C)C(=O)N[C@H](C(=O)NCC(=O)NC2CCC2)CSCC(=O)N[C@@H](Cc2ccc(O)cc2)C(=O)N(C)[C@@H](C)C(=O)N[C@@H](CC(N)=O)C(=O)N2CCC[C@H]2C(=O)N[C@@H](CN)C(=O)N[C@@H](CC(C)C)C(=O)N2C[C@H](O)C[C@H]2C(=O)N[C@@H](Cc2c[nH]c3ccccc23)C(=O)NCC(=O)N[C@@H](Cc2c[nH]c3ccccc23)C(=O)N1C [Example 13092] ({CH2CO}-Y[NMeA]NP[Dap]L[Hyp]WGW[NMeNle][NMeNle]LCG-NHcBu; thioether N-14) | 0.01 to 0.06 µM
CCCC[C@H]1C(=O)N(C)[C@@H](CCCC)C(=O)N[C@@H](CC(C)C)C(=O)N[C@H](C(=O)NCC(=O)N(C)CCC)CSCC(=O)N[C@@H](Cc2ccc(O)cc2)C(=O)N(C)[C@@H](C)C(=O)N[C@@H](CC(N)=O)C(=O)N2CCC[C@H]2C(=O)N[C@@H](CN)C(=O)N[C@@H](CC(C)C)C(=O)N2C[C@H](O)C[C@H]2C(=O)N[C@@H](Cc2c[nH]c3ccccc23)C(=O)NCC(=O)N[C@@H](Cc2c[nH]c3ccccc23)C(=O)N1C [Example 13084] ({CH2CO}-Y[NMeA]NP[Dap]L[Hyp]WGW[NMeNle][NMeNle]LCG-{N(Me)nPr}; thioether N-14) | 0.01 to 0.06 µM
CCCC[C@H]1C(=O)N(C)[C@@H](CCCC)C(=O)N[C@@H](CC(C)C)C(=O)N[C@H](C(=O)NCC(=O)NCCCN(CCO)CCO)CSCC(=O)N[C@@H](Cc2ccc(O)cc2)C(=O)N(C)[C@@H](C)C(=O)N[C@@H](CC(N)=O)C(=O)N2CCC[C@H]2C(=O)N[C@@H](CN)C(=O)N[C@@H](CC(C)C)C(=O)N2C[C@H](O)C[C@H]2C(=O)N[C@@H](Cc2c[nH]c3ccccc23)C(=O)NCC(=O)N[C@@H](Cc2c[nH]c3ccccc23)C(=O)N1C [Example 13107] ({CH2CO}-Y[NMeA]NP[Dap]L[Hyp]WGW[NMeNle][NMeNle]LCG-X9; thioether N-14) | 0.01 to 0.06 µM
CCCC[C@H]1C(=O)N(C)[C@@H](CCCC)C(=O)N[C@@H](CC(C)C)C(=O)N[C@H](C(=O)NCC(=O)NCCOc2ccccc2)CSCC(=O)N[C@@H](Cc2ccc(O)cc2)C(=O)N(C)[C@@H](C)C(=O)N[C@@H](CC(N)=O)C(=O)N2CCC[C@H]2C(=O)N[C@@H](CN)C(=O)N[C@@H](CC(C)C)C(=O)N2C[C@H](O)C[C@H]2C(=O)N[C@@H](Cc2c[nH]c3ccccc23)C(=O)NCC(=O)N[C@@H](Cc2c[nH]c3ccccc23)C(=O)N1C [Example 13108] ({CH2CO}-Y[NMeA]NP[Dap]L[Hyp]WGW[NMeNle][NMeNle]LCG-X10; thioether N-14) | 0.01 to 0.06 µM
CCCC[C@H]1C(=O)N(C)[C@@H](CCCC)C(=O)N[C@@H](CC(C)C)C(=O)N[C@H](C(=O)NCC(=O)NCCS(C)(=O)=O)CSCC(=O)N[C@@H](Cc2ccc(O)cc2)C(=O)N(C)[C@@H](C)C(=O)N[C@@H](CC(N)=O)C(=O)N2CCC[C@H]2C(=O)N[C@@H](CN)C(=O)N[C@@H](CC(C)C)C(=O)N2C[C@H](O)C[C@H]2C(=O)N[C@@H](Cc2c[nH]c3ccccc23)C(=O)NCC(=O)NC(Cc2c[nH]c3ccccc23)C(=O)N1C (some centres unmarked) [Example 13116] ({CH2CO}-Y[NMeA]NP[Dap]L[Hyp]WG[ξW][NMeNle][NMeNle]LCG-X13; thioether N-14) | 0.01 to 0.06 µM
CCCC[C@H]1C(=O)N(C)[C@@H](CCCC)C(=O)N[C@@H](CC(C)C)C(=O)N[C@H](C(=O)NCC(=O)NCc2cccnc2)CSCC(=O)N[C@@H](Cc2ccc(O)cc2)C(=O)N(C)[C@@H](C)C(=O)N[C@@H](CC(N)=O)C(=O)N2CCC[C@H]2C(=O)N[C@@H](CN)C(=O)N[C@@H](CC(C)C)C(=O)N2C[C@H](O)C[C@H]2C(=O)N[C@@H](Cc2c[nH]c3ccccc23)C(=O)NCC(=O)NC(Cc2c[nH]c3ccccc23)C(=O)N1C (some centres unmarked) [Example 13094] ({CH2CO}-Y[NMeA]NP[Dap]L[Hyp]WG[ξW][NMeNle][NMeNle]LCG-{NH(3-picolyl)}; thioether N-14) | 0.01 to 0.06 µM
